Data: patent US20230321025A1, “METHOD AND COMPOUND FOR THE TREATMENT AND ELIMINATION OF AN IMMUNODEFICIENCY CONDITION” (priority 2020, published 2023)
Values after ≈ are worked out from the molar mass of the structure shown. Values joined by “and” are separate entries in the source; they are usually repeats but may differ in a detail not shown here. Equal entries are not always repeated. Where two headings read alike, the source gives them in different places.

Assays:
Type in all cases: cell-based
[1] = tested on: monotropic HIV-1 (macbal); assay: Antiretroviral effect against monotropic/neurotropic HIV-1 in monocyte; settings: monotropic HIV-1 (macbal) in monocyte
HIV-1 (P2) = assay: Antiviral drug assay in PBMC (supernatant p24); settings: for p24 testing data, single readings: listed as H2K-1001 (900); for EC50: Human immunodeficiency virus 1, PBMC
Protocol: Drug efficacy was determined by the production of supernatant HIV-1 p24. Drug-induced cytotoxicity was determined by the metabolic reduction of tetrazolium salts (MTS; Promega).
The antiviral drug or agent of the invention, H2K-1001 (90i), was solubilized. PBMCs, stimulated with PHA (phytohemagglutinin) for three days were employed throughout. Virus stocks (U.S. Clinical isolates) grown in PBMCs only, that past the necessary quality controls (i.e., replicate to high titer in PBMCs and meet the requirements as to genotype and phenotype) were rapidly thawed and maintained on ice until required for infection.
Virus and cell controls were included on each test plate. Virus was added after cells and drugs were mixed. Cell, drug and virus containing cultures were incubated for seven (7) days with an interim feeding at day three or four.
Supernatants were sampled at seven days for p24 determination by antigen capture ELISA. Cytotoxicity was measured by the metabolic reduction of the tetrazolium salt according to the manufacturer’s (Promega) recommendations.
The drug analysis reports from these studies are provided below in Tables 7-10. Efficacy (EC50) and viability (IC50) determinations were made using Cho and Cho Median Effect Equation, as noted above. Efficacy is expressed as the 50% effective concentration (EC50) and drug induced toxicity as the 50% inhibitory concentration (IC50).

HIV-1 (RF) = assay: microbe, parasite or virus in culture; settings: for Efficacy testing, optical density of single wells: listed as R2K18001 (90I)
Source text: This assay was used to test the effectiveness of anti-HIV drug monotherapy in the established T-cell line CEM-SS infected with HIV-1RF, HIV-1IIIb, HIV-2ROD, or other cytolytic variants of HIV.
The drugs were solubilized in DMSO (dimethyl sulfoxide). […] CEM-SS cells were in logarithmic growth phase at the time of experimentation. Virus (HIV-1RF) stocks that past the necessary quality controls (killing effect on the type of cells used, limited variability, etc) were thawed and maintained on ice until required for addition.
Half-log serial dilutions of the antiviral agent or compound of the invention, H2K1001 (90i), were made in tissue culture media (RPMI 1640 without phenol red, supplemented with 10% heat inactivated fetal bovine serum, 1% L-Glutamine, 1% Pen/Strep and 50 ug/ml gentimycin). Virus, cell, drug and diluent (ethanol) controls were included for these tests. Virus was added after cells and drugs were mixed. Cell, drug, and virus containing cultures were incubated for six (6) days without additional feeding at which time the cultures were evaluated macroscopically and microscopically for cell toxicity, and the tetrazolium salt […] was added for quantitation by the colorimetric determination of formazan production (optical density).
Drug efficacy and cytotoxicity effects were determined six days after infection by the metabolic reduction of the tetrazolium salt XTT to its‘ formazan by surviving cells and was quantitated by determination of optical density at 450 nm with background subtraction at 650 nm (Tables 1-4).
The drug plate analysis reports from this assay are provided below in Tables 1-4. Calculated endpoints (EC50, etc.) were determined using Cho and Cho Median Effect Equation (Daids Virology Manual for HIV Laboratories, Compiled by The Division of Aids, National Institute of Allergy and Infectious Diseases, National Institutes of Health and Collaborating Investigators, Version January 1997).

Q: Which results are given for O=C(OCCOCCOC(=O)c1ccccc1)c1ccccc1 [90I, diethylene glycol dibenzoate]?
A: EC50 ([1]; Human immunodeficiency virus 1, read-out: 50% effective concentration (EC50)): 0.03 µg/mL (≈ 0.0954 µM); TI [1]: greater than 4000; Efficacy % p24 Reduction (HIV-1 (P2); 0.01 ug/ml): 23%; p24 testing data, mean reading (HIV-1 (P2); 0.01 ug/ml): 2.2023; p24 testing data, single readings (HIV-1 (P2); 0.01 ug/ml): 2.100 and 2.2130 and 2.2937; Efficacy % p24 Reduction (HIV-1 (P2); 0.03 ug/ml): 25%; p24 testing data, mean reading (HIV-1 (P2); 0.03 ug/ml): 2.1373; p24 testing data, single readings (HIV-1 (P2); 0.03 ug/ml): 2.1210 and 1.9460 and 2.3450; Efficacy % p24 Reduction (HIV-1 (P2); 0.10 ug/ml): 36%; p24 testing data, mean reading (HIV-1 (P2); 0.10 ug/ml): 1.8337; p24 testing data, single readings (HIV-1 (P2); 0.10 ug/ml): 1.9461 and 1.8101 and 1.7450; Efficacy % p24 Reduction (HIV-1 (P2); 0.33 ug/ml): 36%; p24 testing data, mean reading (HIV-1 (P2); 0.33 ug/ml): 1.8344; p24 testing data, single readings (HIV-1 (P2); 0.33 ug/ml): 1.9451 and 1.7120 and 1.8460; Efficacy % p24 Reduction (HIV-1 (P2); 1 ug/ml): 53%; p24 testing data, mean reading (HIV-1 (P2); 1 ug/ml): 1.3316; p24 testing data, single readings (HIV-1 (P2); 1 ug/ml): 1.4266 and 1.4567 and 1.1116; p24 testing data, mean reading (HIV-1 (P2); 3 ug/ml): 0.3713; Efficacy % p24 Reduction (HIV-1 (P2); 3 ug/ml (3.2 in Table 11)): 87%; p24 testing data, single readings (HIV-1 (P2); 3 ug/ml): 0.4510 and 0.3219 and 0.3410; Efficacy % p24 Reduction (HIV-1 (P2); 10 ug/ml): 95%; p24 testing data, mean reading (HIV-1 (P2); 10 ug/ml): 0.1397; p24 testing data, single readings (HIV-1 (P2); 10 ug/ml): 0.1090 and 0.1220 and 0.1874; Efficacy % p24 Reduction (HIV-1 (P2); 32 ug/ml): 94%; p24 testing data, mean reading (HIV-1 (P2); 32 ug/ml): 0.1690; Efficacy % p24 Reduction (HIV-1 (P2); 100 ug/ml): 93%; p24 testing data, mean reading (HIV-1 (P2); 100 ug/ml): 0.1946; p24 testing data, single readings (HIV-1 (P2); 100 ug/ml): 0.1530 and 0.1820 and 0.2488; TI (HIV-1 (P2); HIV-1 P2 in PBMC): greater than 125; EC50 (HIV-1 (P2); HIV-1 P2 clinical isolate in PBMC, read-out: EC50): ~0.8 µg/mL (≈ 2.55 µM); EC50 (HIV-1 (P2); PBMC, virus printed HIV-IRF, read-out: BC50 (the source's name)): 0.8 µg/mL (≈ 2.55 µM); Efficacy % CC (HIV-1 (RF); 0.01 ug/ml): 42 % CC; Efficacy testing, mean optical density (HIV-1 (RF); 0.01 ug/ml): 1.0282; Efficacy testing, optical density of single wells (HIV-1 (RF); 0.01 ug/ml): 0.9892 and 1.0238 and 1.0477; Efficacy % CC (HIV-1 (RF); 0.03 ug/ml): 80 % CC; Efficacy testing, mean optical density (HIV-1 (RF); 0.03 ug/ml): 1.9368; Efficacy testing, optical density of single wells (HIV-1 (RF); 0.03 ug/ml): 2.0839 and 1.6926 and 2.0343; Efficacy % CC (HIV-1 (RF); 0.1 ug/ml): 87 % CC; Efficacy testing, mean optical density (HIV-1 (RF); 0.1 ug/ml): 2.1073; Efficacy testing, optical density of single wells (HIV-1 (RF); 0.1 ug/ml): 2.2196 and 2.0140 and 2.0883; Efficacy % CC (HIV-1 (RF); 0.3 ug/ml): 83 % CC; Efficacy testing, mean optical density (HIV-1 (RF); 0.3 ug/ml): 2.0091; Efficacy testing, optical density of single wells (HIV-1 (RF); 0.3 ug/ml): 2.1099 and 1.8158 and 2.1016; Efficacy % CC (HIV-1 (RF); 1 ug/ml): 84 % CC; Efficacy testing, mean optical density (HIV-1 (RF); 1 ug/ml): 2.0264; Efficacy testing, optical density of single wells (HIV-1 (RF); 1 ug/ml): 2.2771 and 1.9186 and 1.8914; Efficacy % CC (HIV-1 (RF); 3 ug/ml): 84 % CC; Efficacy testing, mean optical density (HIV-1 (RF); 3 ug/ml): 2.0459; Efficacy testing, optical density of single wells (HIV-1 (RF); 3 ug/ml): 2.2499 and 1.9311 and 1.9576; Efficacy % CC (HIV-1 (RF); 10 ug/ml): 82 % CC; Efficacy testing, mean optical density (HIV-1 (RF); 10 ug/ml): 1.9797; Efficacy testing, optical density of single wells (HIV-1 (RF); 10 ug/ml): 2.0385 and 2.0038 and 1.8968; Efficacy % CC (HIV-1 (RF); 33 ug/ml): 86 % CC; Efficacy testing, mean optical density (HIV-1 (RF); 33 ug/ml): 2.0805; Efficacy testing, optical density of single wells (HIV-1 (RF); 33 ug/ml): 2.1945 and 1.9560 and 2.0909; Efficacy % CC (HIV-1 (RF); 100 ug/ml): 88 % CC; Efficacy testing, mean optical density (HIV-1 (RF); 100 ug/ml): 2.1221; Efficacy testing, optical density of single wells (HIV-1 (RF); 100 ug/ml): 2.2450 and 1.9588 and 2.1625; therapeutic index (TI=IC50/EC50) (HIV-1 (RF); HIV-1 RF in CEM-SS): greater than 5000; EC50 (HIV-1 (RF); Human immunodeficiency virus 1, CEM-SS, read-out: 50% effective concentration (EC50), RF laboratory strain of HIV-1 in CEM-SS): ~0.02 µg/mL (≈ 0.0636 µM)
